Data reported in publication PMC12454493, “Insight on novel sulfamoylphenyl pyrazole derivatives as anticancer carbonic anhydrase inhibitors” (Molecular Diversity, 2024).

Key:
Format in all cases: cell-based
HOP-92 = assay: NCI-60 one-dose SRB screen (Non-Small Cell Lung Cancer); conditions: Homo sapiens, single dose 10 µM, 48 h, read-out: Growth inhibition percent (GI %)
Experimental: (§1) The National Cancer Institute (NCI) Developmental Therapeutic Program (www.dtp.nci.nih.gov) selected the 20 novel synthesized compounds 4a-e, 5a-e, 6a-c, 9a-e, 10 and 11 to test for their anticancer activity at a single dose of 10 µM using SRB assay. […] Supplementary Data S3; Table S1 presents the detailed screening results of the most promising compounds. The preliminary screening’s detailed results for the remaining compounds are elucidated in the (Supplementary Data S3; Table S2).
(§2) The guidelines of the Drug Evaluation Branch’s protocol at the NCI in Bethesda served as the basis for the in vitro anticancer screening assays. at one dose 10 µM against a panel of 60 cancer cell lines. The human tumor cell lines used belonged to nine panels: leukemia, melanoma, lung, colon, CNS, ovarian, renal, prostate and breast cancers using the sulforhodamine B (SRB) assay in a 48 h drug exposure protocol.

NCI-H322M = assay: as above; conditions: Homo sapiens, single dose 10 µM, 48 h, read-out: Growth inhibition percent (GI %)
Experimental: as §1, §2

HOP-62 = assay: as above; conditions: Homo sapiens, single dose 10 µM, 48 h, read-out: Growth inhibition percent (GI %)
Experimental: as §1, §2

NCI-H522 = assay: as above; conditions: Homo sapiens, single dose 10 µM, 48 h, read-out: Growth inhibition percent (GI %)
Experimental: as §1, §2

SF-539 = assay: NCI-60 one-dose SRB screen (CNS Cancer); conditions: Homo sapiens, single dose 10 µM, 48 h, read-out: Growth inhibition percent (GI %)
Experimental: as §1, §2

SF-295 = assay: NCI-60 one-dose SRB screen (CNS Cancer); conditions: Homo sapiens, single dose 10 µM, 48 h, read-out: Growth inhibition percent (GI %)
Experimental: as §1, §2

SNB-19 = assay: NCI-60 one-dose SRB screen (CNS Cancer); conditions: Homo sapiens, single dose 10 µM, 48 h, read-out: Growth inhibition percent (GI %)
Experimental: as §1, §2

SF-268 = assay: NCI-60 one-dose SRB screen (CNS Cancer); conditions: Homo sapiens, single dose 10 µM, 48 h, read-out: Growth inhibition percent (GI %)
Experimental: as §1, §2

U251 = assay: NCI-60 one-dose SRB screen (CNS Cancer); conditions: Homo sapiens, U-251, single dose 10 µM, 48 h, read-out: Growth inhibition percent (GI %)
Experimental: as §1, §2

SNB-75 = assay: NCI-60 one-dose SRB screen (CNS Cancer); conditions: Homo sapiens, single dose 10 µM, 48 h, read-out: Growth inhibition percent (GI %)
Experimental: as §1, §2

UO-31 = assay: NCI-60 one-dose SRB screen (Renal Cancer); conditions: Homo sapiens, single dose 10 µM, 48 h, read-out: Growth inhibition percent (GI %)
Experimental: as §1, §2

RXF 393 = assay: NCI-60 one-dose SRB screen (Renal Cancer); conditions: Homo sapiens, single dose 10 µM, 48 h, read-out: Growth inhibition percent (GI %)
Experimental: as §1, §2

786-0 = assay: NCI-60 one-dose SRB screen (Renal Cancer); conditions: Homo sapiens, single dose 10 µM, 48 h, read-out: Growth inhibition percent (GI %)
Experimental: as §1, §2

A498 = assay: NCI-60 one-dose SRB screen (Renal Cancer); conditions: Homo sapiens, single dose 10 µM, 48 h, read-out: Growth inhibition percent (GI %)
Experimental: as §1, §2

ACHN = assay: NCI-60 one-dose SRB screen (Renal Cancer); conditions: Homo sapiens, single dose 10 µM, 48 h, read-out: Growth inhibition percent (GI %)
Experimental: as §1, §2

TK-10 = assay: NCI-60 one-dose SRB screen (Renal Cancer); conditions: Homo sapiens, single dose 10 µM, 48 h, read-out: Growth inhibition percent (GI %)
Experimental: as §1, §2

CAKI-1 = assay: NCI-60 one-dose SRB screen (Renal Cancer); conditions: Homo sapiens, single dose 10 µM, 48 h, read-out: Growth inhibition percent (GI %)
Experimental: as §1, §2

MCF-7 = assay: NCI-60 one-dose SRB screen (Breast Cancer); conditions: Homo sapiens, MCF7, single dose 10 µM, 48 h, read-out: Growth inhibition percent (GI %)
Experimental: as §1, §2

HS 578T = assay: NCI-60 one-dose SRB screen (Breast Cancer); conditions: Homo sapiens, single dose 10 µM, 48 h, read-out: Growth inhibition percent (GI %)
Experimental: as §1, §2

BT-549 = assay: NCI-60 one-dose SRB screen (Breast Cancer); conditions: Homo sapiens, single dose 10 µM, 48 h, read-out: Growth inhibition percent (GI %)
Experimental: as §1, §2

MDA-MB-231/ATCC = assay: NCI-60 one-dose SRB screen (Breast Cancer); conditions: Homo sapiens, single dose 10 µM, 48 h, read-out: Growth inhibition percent (GI %)
Experimental: as §1, §2

MDA-MB-468 = assay: NCI-60 one-dose SRB screen (Breast Cancer); conditions: Homo sapiens, single dose 10 µM, 48 h, read-out: Growth inhibition percent (GI %)
Experimental: as §1, §2

T-47D = assay: NCI-60 one-dose SRB screen (Breast Cancer); conditions: Homo sapiens, T47D, single dose 10 µM, 48 h, read-out: Growth inhibition percent (GI %)
Experimental: as §1, §2

NCI/ADR-RES = assay: NCI-60 one-dose SRB screen (Ovarian cancer); conditions: Homo sapiens, single dose 10 µM, 48 h, read-out: Growth inhibition percent (GI %)
Experimental: as §1, §2

SK-OV-3 = assay: NCI-60 one-dose SRB screen (Ovarian cancer); conditions: Homo sapiens, single dose 10 µM, 48 h, read-out: Growth inhibition percent (GI %)
Experimental: as §1, §2

IGROV1 = assay: NCI-60 one-dose SRB screen (Ovarian cancer); conditions: Homo sapiens, IGROV-1, single dose 10 µM, 48 h, read-out: Growth inhibition percent (GI %)
Experimental: as §1, §2

OVCAR-4 = assay: NCI-60 one-dose SRB screen (Ovarian cancer); conditions: Homo sapiens, single dose 10 µM, 48 h, read-out: Growth inhibition percent (GI %)
Experimental: as §1, §2

OVCAR-8 = assay: NCI-60 one-dose SRB screen (Ovarian cancer); conditions: Homo sapiens, single dose 10 µM, 48 h, read-out: Growth inhibition percent (GI %)
Experimental: as §1, §2

OVCAR-5 = assay: NCI-60 one-dose SRB screen (Ovarian cancer); conditions: Homo sapiens, single dose 10 µM, 48 h, read-out: Growth inhibition percent (GI %)
Experimental: as §1, §2

OVCAR-3 = assay: NCI-60 one-dose SRB screen (Ovarian cancer); conditions: Homo sapiens, single dose 10 µM, 48 h, read-out: Growth inhibition percent (GI %)
Experimental: as §1, §2

CCOC(=O)c1ccc(NC(=O)COC(=O)c2cn(-c3ccc(S(N)(=O)=O)cc3)nc2-c2ccccc2)cc1 [Compound 5a, 2-[(4-(Ethoxycarbonyl)phenyl)amino]-2-oxoethyl 3-phenyl-1-(4-sulfamoylphenyl)-1H-pyrazole-4-carboxylate]
inhibition at 10 µM (HOP-92): 38.2% | inhibition at 10 µM (NCI-H322M): 32.4% | inhibition at 10 µM (HOP-62): 19.3% | inhibition at 10 µM (NCI-H522): 76.8% | inhibition at 10 µM (SF-539): 46% | inhibition at 10 µM (SF-295): 60% | inhibition at 10 µM (SNB-19): 60.9% | inhibition at 10 µM (SF-268): 52.2% | inhibition at 10 µM (U251): 58.5% | inhibition at 10 µM (SNB-75): 60.6% | inhibition at 10 µM (UO-31): 62.7% | inhibition at 10 µM (RXF 393): 66.5% | inhibition at 10 µM (786-0): 66.9% | inhibition at 10 µM (A498): 25.3% | inhibition at 10 µM (ACHN): 76.1% | inhibition at 10 µM (TK-10): 40.1% | inhibition at 10 µM (CAKI-1): 61.6% | inhibition at 10 µM (MCF-7): 81.6% | inhibition at 10 µM (HS 578T): 44.6% | inhibition at 10 µM (BT-549): 64.1% | inhibition at 10 µM (MDA-MB-231/ATCC): 35.8% | inhibition at 10 µM (MDA-MB-468): 62% | inhibition at 10 µM (T-47D): 69.7% | inhibition at 10 µM (NCI/ADR-RES): 16.6% | inhibition at 10 µM (SK-OV-3): 5.67% | inhibition at 10 µM (IGROV1): 45.4% | inhibition at 10 µM (OVCAR-4): 46.6% | inhibition at 10 µM (OVCAR-8): 39.5% | inhibition at 10 µM (OVCAR-5): 28.7% | inhibition at 10 µM (OVCAR-3): 42.7%
